Assay results: US20070149465A1, “COMPOSITIONS AND METHODS FOR PREVENTION AND TREATMENT OF CACHEXIA” (priority 2005, published 2007)
Converted amounts (≈) assume the structure as drawn.

Columns and labels:
[1] = Aqueous solubility of roxithromycin (pH, buffer, ethanol); format: physicochemical; conditions: 25 °C, thermodynamic from solid
Method: (§1) The solutions were syringe-filtered and analyzed by HPLC for [roxithromycin]. Roxithromycin Potency was assayed by a reverse-phase HPLC method that meets the requirements of the European Pharmacopeia (EP) Monograph for roxithromycin. Solution pH values were determined per USP <791> and solution osmolality values were determined per USP <785>. Aqueous solubility limits were determined for roxithromycin as a function of buffer type (phosphate versus citrate), buffer concentration, pH, and added co-solvent (ethanol).

[2] = Solution osmolality of roxithromycin citrate solutions; format: physicochemical; conditions: 25° C.
Method: as §1

[3] = system: Saline-inoculated rats; assay: Rat AH130 experiments, saline-inoculated control rats given drug; format: in vivo, female Wistar rats; conditions: for Carcass Weights Mean / Gastrocnemius Weights Mean / Heart Weights Mean: Saline, Day 5, normalized to 100 g Day 5 Total Body Weight
Method: Following the method of Busquets et al (Busquets S, et al: Cancer Res 64:6725-31, 2004), female Wistar rats were inoculated (Day 0) intra-peritoneally (i.p.) with 2×10^7 cells/animal of Yoshida AH-130 ascites hepatoma (AH) cells. Control animals were inoculated with an equivalent amount of sterile saline solution. […] The animals were sacrificed on Day 5. Upon sacrifice, wet weights of heart and gastrocnemius muscle were determined. Carcass (after gastrocnemius, heart, and ascites removal) weight was also determined upon sacrifice.
Treatment Group=Inoculation Type/Vehicle, or Treatment Group=Inoculation Type/F(x)R(y) where, Inoculation Type is either AH or Saline, F is formoterol fumarate, R is roxithromycin, and the parenthetical values are formoterol fumarate and roxithromycin doses (i.p. in mg/kg).

[4] = Exp 2 Group 9, F 0, R 5 mg/kg i.p.
[5] = Exp 3 Group 15, F 0, R 40 mg/kg i.p.

Structure (SMILES): CC[C@H]1OC(=O)[C@H](C)[C@@H](O[C@H]2C[C@@](C)(OC)[C@@H](O)[C@H](C)O2)[C@H](C)[C@@H](O[C@@H]2O[C@H](C)C[C@H](N(C)C)[C@H]2O)[C@](C)(O)C[C@@H](C)/C(=N\OCOCCOC)[C@H](C)[C@@H](O)[C@]1(C)O [roxithromycin]
- solubility at 24 h ([1]; citrate buffer, pH 4, aqueous buffer, 20 mM citrate, pH 4): 4130 µg/mL (≈ 4.93 mM)
- solubility at 24 h ([1]; citrate buffer, pH 4, aqueous buffer, 50 mM citrate, pH 4): 4610 µg/mL (≈ 5.51 mM)
- solubility at 24 h ([1]; citrate buffer, pH 4, aqueous buffer, 100 mM citrate, pH 4): 1890 µg/mL (≈ 2.26 mM)
- solubility at 24 h ([1]; citrate buffer, pH 4, aqueous buffer, 200 mM citrate, pH 4): 2740 µg/mL (≈ 3.27 mM)
- solubility at 24 h ([1]; citrate buffer, pH 5, aqueous buffer, 20 mM citrate, pH 5): 3540 µg/mL (≈ 4.23 mM)
- solubility at 24 h ([1]; citrate buffer, pH 5, aqueous buffer, 50 mM citrate, pH 5): 3570 µg/mL (≈ 4.26 mM)
- solubility at 24 h ([1]; citrate buffer, pH 5, aqueous buffer, 100 mM citrate, pH 5): 2770 µg/mL (≈ 3.31 mM)
- solubility at 24 h ([1]; citrate buffer, pH 5, aqueous buffer, 200 mM citrate, pH 5): 1900 µg/mL (≈ 2.27 mM)
- solubility at 24 h ([1]; citrate buffer, pH 6, aqueous buffer, 20 mM citrate, pH 6): 2450 µg/mL (≈ 2.93 mM)
- solubility at 24 h ([1]; citrate buffer, pH 6, aqueous buffer, 50 mM citrate, pH 6): 2760 µg/mL (≈ 3.3 mM)
- solubility at 24 h ([1]; citrate buffer, pH 6, aqueous buffer, 100 mM citrate, pH 6): 2300 µg/mL (≈ 2.75 mM)
- solubility at 24 h ([1]; citrate buffer, pH 6, aqueous buffer, 200 mM citrate, pH 6): 1720 µg/mL (≈ 2.05 mM)
- solubility at 24 h ([1]; citrate buffer, pH 7, aqueous buffer, 20 mM citrate, pH 7): 500 µg/mL (≈ 0.597 mM)
- solubility at 24 h ([1]; citrate buffer, pH 7, aqueous buffer, 50 mM citrate, pH 7): 980 µg/mL (≈ 1.17 mM)
- solubility at 24 h ([1]; citrate buffer, pH 7, aqueous buffer, 100 mM citrate, pH 7): 1230 µg/mL (≈ 1.47 mM)
- solubility at 24 h ([1]; citrate buffer, pH 7, aqueous buffer, 200 mM citrate, pH 7): 1250 µg/mL (≈ 1.49 mM)
- solubility at 24 h ([1]; phosphate buffer with ethanol co-solvent, pH 5, aqueous with cosolvent or surfactant or cyclodextrin, pH 5, 10 mM phosphate, 5% ethanol): 3500 µg/mL (≈ 4.18 mM)
- solubility at 24 h ([1]; phosphate buffer with ethanol co-solvent, pH 5, aqueous with cosolvent or surfactant or cyclodextrin, pH 5, 10 mM phosphate, 10% ethanol): 3800 µg/mL (≈ 4.54 mM)
- solubility at 24 h ([1]; phosphate buffer with ethanol co-solvent, pH 5, aqueous with cosolvent or surfactant or cyclodextrin, pH 5, 20 mM phosphate, 5% ethanol): 5500 µg/mL (≈ 6.57 mM)
- solubility at 24 h ([1]; phosphate buffer with ethanol co-solvent, pH 5, aqueous with cosolvent or surfactant or cyclodextrin, pH 5, 20 mM phosphate, 10% ethanol): 6000 µg/mL (≈ 7.17 mM)
- solubility at 24 h ([1]; phosphate buffer with ethanol co-solvent, pH 5, aqueous with cosolvent or surfactant or cyclodextrin, pH 5, 50 mM phosphate, 5% ethanol): 8300 µg/mL (≈ 9.92 mM)
- solubility at 24 h ([1]; phosphate buffer with ethanol co-solvent, pH 5, aqueous with cosolvent or surfactant or cyclodextrin, pH 5, 50 mM phosphate, 10% ethanol): 9200 µg/mL (≈ 11 mM)
- solubility at 24 h ([1]; phosphate buffer with ethanol co-solvent, pH 6, aqueous with cosolvent or surfactant or cyclodextrin, pH 6, 10 mM phosphate, 5% ethanol): 4100 µg/mL (≈ 4.9 mM)
- solubility at 24 h ([1]; phosphate buffer with ethanol co-solvent, pH 6, aqueous with cosolvent or surfactant or cyclodextrin, pH 6, 10 mM phosphate, 10% ethanol): 3900 µg/mL (≈ 4.66 mM)
- solubility at 24 h ([1]; phosphate buffer with ethanol co-solvent, pH 6, aqueous with cosolvent or surfactant or cyclodextrin, pH 6, 20 mM phosphate, 5% ethanol): 4600 µg/mL (≈ 5.5 mM)
- solubility at 24 h ([1]; phosphate buffer with ethanol co-solvent, pH 6, aqueous with cosolvent or surfactant or cyclodextrin, pH 6, 20 mM phosphate, 10% ethanol): 5000 µg/mL (≈ 5.97 mM)
- solubility at 24 h ([1]; phosphate buffer with ethanol co-solvent, pH 6, aqueous with cosolvent or surfactant or cyclodextrin, pH 6, 50 mM phosphate, 5% ethanol): 8100 µg/mL (≈ 9.68 mM)
- solubility at 24 h ([1]; phosphate buffer with ethanol co-solvent, pH 6, aqueous with cosolvent or surfactant or cyclodextrin, pH 6, 50 mM phosphate, 10% ethanol): 9300 µg/mL (≈ 11.1 mM)
- solubility at 24 h ([1]; phosphate buffer with ethanol co-solvent, pH 7, aqueous with cosolvent or surfactant or cyclodextrin, pH 7, 10 mM phosphate, 5% ethanol): 1800 µg/mL (≈ 2.15 mM)
- solubility at 24 h ([1]; phosphate buffer with ethanol co-solvent, pH 7, aqueous with cosolvent or surfactant or cyclodextrin, pH 7, 10 mM phosphate, 10% ethanol): 1700 µg/mL (≈ 2.03 mM)
- solubility at 24 h ([1]; phosphate buffer with ethanol co-solvent, pH 7, aqueous with cosolvent or surfactant or cyclodextrin, pH 7, 20 mM phosphate, 5% ethanol): 1700 µg/mL (≈ 2.03 mM)
- solubility at 24 h ([1]; phosphate buffer with ethanol co-solvent, pH 7, aqueous with cosolvent or surfactant or cyclodextrin, pH 7, 20 mM phosphate, 10% ethanol): 2100 µg/mL (≈ 2.51 mM)
- solubility at 24 h ([1]; phosphate buffer with ethanol co-solvent, pH 7, aqueous with cosolvent or surfactant or cyclodextrin, pH 7, 50 mM phosphate, 5% ethanol): 2300 µg/mL (≈ 2.75 mM)
- solubility at 24 h ([1]; phosphate buffer with ethanol co-solvent, pH 7, aqueous with cosolvent or surfactant or cyclodextrin, pH 7, 50 mM phosphate, 10% ethanol): 3100 µg/mL (≈ 3.7 mM)
- solubility at 24 h ([1]; phosphate buffer, pH 5, aqueous buffer, pH 5, 10 mM phosphate, 0% ethanol): 3200 µg/mL (≈ 3.82 mM)
- solubility at 24 h ([1]; phosphate buffer, pH 5, aqueous buffer, pH 5, 20 mM phosphate, 0% ethanol): 5200 µg/mL (≈ 6.21 mM)
- solubility at 24 h ([1]; phosphate buffer, pH 5, aqueous buffer, pH 5, 50 mM phosphate, 0% ethanol): 7200 µg/mL (≈ 8.6 mM)
- solubility at 24 h ([1]; phosphate buffer, pH 6, aqueous buffer, pH 6, 10 mM phosphate, 0% ethanol): 2800 µg/mL (≈ 3.35 mM)
- solubility at 24 h ([1]; phosphate buffer, pH 6, aqueous buffer, pH 6, 20 mM phosphate, 0% ethanol): 4200 µg/mL (≈ 5.02 mM)
- solubility at 24 h ([1]; phosphate buffer, pH 6, aqueous buffer, pH 6, 50 mM phosphate, 0% ethanol): 6700 µg/mL (≈ 8 mM)
- solubility at 24 h ([1]; phosphate buffer, pH 7, aqueous buffer, pH 7, 10 mM phosphate, 0% ethanol): 1400 µg/mL (≈ 1.67 mM)
- solubility at 24 h ([1]; phosphate buffer, pH 7, aqueous buffer, pH 7, 20 mM phosphate, 0% ethanol): 1300 µg/mL (≈ 1.55 mM)
- solubility at 24 h ([1]; phosphate buffer, pH 7, aqueous buffer, pH 7, 50 mM phosphate, 0% ethanol): 2000 µg/mL (≈ 2.39 mM)
- Solution Osmolaltiy ([2]; 20 mM citrate, pH 4): 43 mOsm/kG
- Solution Osmolaltiy ([2]; 20 mM citrate, pH 5): 47 mOsm/kG
- Solution Osmolaltiy ([2]; 20 mM citrate, pH 6): 57 mOsm/kG
- Solution Osmolaltiy ([2]; 20 mM citrate, pH 7): 60 mOsm/kG
- Solution Osmolaltiy ([2]; 50 mM citrate, pH 4): 110 mOsm/kG
- Solution Osmolaltiy ([2]; 50 mM citrate, pH 5): 124 mOsm/kG
- Solution Osmolaltiy ([2]; 50 mM citrate, pH 6): 139 mOsm/kG
- Solution Osmolaltiy ([2]; 50 mM citrate, pH 7): 138 mOsm/kG
- Solution Osmolaltiy ([2]; 100 mM citrate, pH 4): 203 mOsm/kG
- Solution Osmolaltiy ([2]; 100 mM citrate, pH 5): 243 mOsm/kG
- Solution Osmolaltiy ([2]; 100 mM citrate, pH 6): 260 mOsm/kG
- Solution Osmolaltiy ([2]; 100 mM citrate, pH 7): 271 mOsm/kG
- Solution Osmolaltiy ([2]; 200 mM citrate, pH 4): 366 mOsm/kG
- Solution Osmolaltiy ([2]; 200 mM citrate, pH 5): 462 mOsm/kG
- Solution Osmolaltiy ([2]; 200 mM citrate, pH 6): 521 mOsm/kG
- Solution Osmolaltiy ([2]; 200 mM citrate, pH 7): 532 mOsm/kG
- Carcass Weights Mean [3, 4]: 97.6 g
- Gastrocnemius Weights Mean [3, 4]: 0.575 g
- Heart Weights Mean [3, 4]: 0.390 g
- Carcass Weights Mean [3, 5]: 96.5 g
- Gastrocnemius Weights Mean [3, 5]: 0.529 g
- Heart Weights Mean [3, 5]: 0.400 g
- gastrocnemius muscle weights compared with Saline/vehicle group ([3]; Experiment 2, Saline/F(0)R(5) group): approximately the same
- gastrocnemius muscle weights compared with Saline/vehicle control group ([3]; Experiment 3, Saline/F(0)R(40) group): not different
